Publication PMC10799935, “Discovery of a peripheral 5HT2A antagonist as a clinical candidate for metabolic dysfunction-associated steatohepatitis” (Nature Communications, 2024)
Values after ≈ are worked out from the molar mass of the structure shown. Values joined by “and” are separate entries in the source; they are usually repeats but may differ in a detail not shown here. Identical values can stand only once.

Legend:
TNF-α = test: CDAHFD mice: TNF-α immunohistochemical staining; format: in vivo, mouse; parameters: TNF-α immunohistochemical staining (TNF-a area), individual mouse / TNF-α immunohistochemical staining (TNF-a area), Average: unit not given here; settings: for TNF-α immunohistochemical staining (TNF-a area), Average / TNF-α immunohistochemical staining (TNF-a area), individual mouse: CDAHFD mice; for TNF-α immunohistochemical staining (TNF-a area), Average: group average n=5, CDAHFD+Vehicle 9.246, Vehicle 2.978; for TNF-α immunohistochemical staining (TNF-a area), individual mouse: individual animals No. 1-5 (Fig.4g)
From the text: (§1) C57BL/6 J male mice were purchased from the Japan SLC. Inc (Hamamatsu, Japan). Mice (5 weeks old) were fed Teklad Certitied Irradiated Global 18% protein rodent diet purchased from Dooyeol Biotech Co. Ltd (Seoul, South Korea) during the acclimation period. The liver fibrosis/inflammation-induced groups were CDAHFD-fed (A06071302, Research diet). […] All animal experiments complied with the relevant ethical regulations.
(§2) Mouse liver tissues were fixed in 4% formalin solution (Sigma–Aldrich, St. Louis, MO, USA) and embedded in paraffin. 4-μm-thick liver sections were deparaffinized in xylene, and rehydrated through descending grades of ethanol. To evaluate liver fibrosis, sections were stained with Sirius red solution and subjected to immunohistochemical staining. Tissue sections, after deparaffinization, underwent a 16-hour incubation in a solution containing 0.1% Direct Red 80 (365548, Sigma-Aldrich) dissolved in Picric acid (P-201, Spectrum Chemical, CA, USA) for Sirius red staining. The sections were briefly immersed in a 0.01 N HCl solution (1129, Ducksan, Republic of Korea) for 2 min. and then rinsed with distilled water for destaining. Subsequently, the sections underwent dehydration through […] grades of ethanol. Immunohistochemical staining was performed using the Polyview Plus HRP-DAB (anti-Rabbit) Kit (ENZ-KIT159-0150, ENZO Life Science, NY, USA) following the manufacturers’ instructions. Deparaffinized sections were boiled in IHC-TekTM Epitope Retrieval solution (IW-1100, IHCWORLD, MD, USA) for 45 min., cooled for 1 h, incubated in a 3% H2O2 solution (69355-0350, JUNSEI, Japan) for 15 min., washed, and then incubated overnight with primary antibodies (α-SMA, ab5694, Abcam, 1:500 dilution; TNF-α, ab6671, Abcam, 1:100 dilution and IL-1β, ab9722, Abcam, 1:100 dilution). Subsequently, the sections were treated with Polyview Plus HRP for 2 h and developed with DAB chromogen/substrate. Stained […] sections were confirmed by light microscopy (Olympus BX53 upright microscope, Tokyo, Japan). The degree of hepatic fibrosis and immunohistochemical staining was quantified by morphometric analysis of stained liver sections using NIH ImageJ software.

[1] = system: CDAHFD-fed C57BL/6 J mice; test: CDAHFD mice: Sirius red staining (fibrotic area);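 for Sirius red staining (fibrotic area), individual mouse: percent of liver section area positive for Sirius red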; format: in vivo, mouse; parameters: Sirius red staining (fibrotic area), individual mouse / Sirius red staining (fibrotic area), Average: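 percent of liver section area positive for Sirius red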; settings: for Sirius red staining (fibrotic area), Average / Sirius red staining (fibrotic area), individual mouse: CDAHFD mice; for Sirius red staining (fibrotic area), Average: group average n=5, CDAHFD+Vehicle 5.533, Vehicle 0.905; for Sirius red staining (fibrotic area), individual mouse: individual animals No. 1-5 (Fig.4e)
From the text: as §1, §2

physchem = settings: pH 6.8, aqueous buffer
[2] = CDAHFD-fed 11c vs CDAHFD-fed vehicle group

Cc1nc2n(c(=O)c1CCN1CCC(=C3c4ccc(Cl)cc4CCc4cccnc43)CC1)CCCC2O (centres unmarked) [Compound 11c]
TNF-α immunohistochemical staining (TNF-a area), Average (TNF-α; 11c 5 mpk): 4.057
TNF-α immunohistochemical staining (TNF-a area), individual mouse (TNF-α; 11c 5 mpk): 3.240 and 5.741 and 5.588 and 3.146 and 2.573
TNF-α immunohistochemical staining (TNF-a area), Average (TNF-α; 11c 10mpk): 5.049
TNF-α immunohistochemical staining (TNF-a area), individual mouse (TNF-α; 11c 10mpk): 7.848 and 3.111 and 8.161 and 2.686 and 3.441
TNF-α expression (immunohistochemical staining) (TNF-α; [2]): significant decrease
Sirius red staining (fibrotic area), Average ([1]; 11c 5 mpk): 3.015
Sirius red staining (fibrotic area), individual mouse ([1]; 11c 5 mpk): 3.008 and 1.579 and 3.604 and 3.231 and 3.651
Sirius red staining (fibrotic area), Average ([1]; 11c 10mpk): 3.818
Sirius red staining (fibrotic area), individual mouse ([1]; 11c 10mpk): 2.883 and 3.981 and 4.409 and 4.507 and 3.312
collagen accumulation in liver tissue (Sirius red staining) [1, 2]: significant decrease
solubility (physchem): 1300 µg/mL (≈ 2510 µM)
